The IC50 is the concentration that inhibits the measured activity by half.

The subject of this assay is Wnt pathway (TCF-dependent transcription in HEK293 luciferase reporter cell line with ER-DSH construct). In words: Cellular assay for Wnt pathway activity (luciferase reporter). It is filed as cell-based. The note with it: Homo sapiens; Wnt pathway inhibition, HEK293 luciferase reporter cells (ER-DSH, TCF promoter), 24 hours incubation, estrogen-induced. Here is the method:
1. Cellular Assay for Wnt Pathway Activity
Compounds were tested for their Wnt pathway inhibitory activities using a luciferase reporter cell based assay. A HEK293 luciferase reporter cell line was used which contained an Estrogen Receptor-Dishevelled (ER-DSH) construct and a T-Cell Factor (TCF) dependent gene promoter luciferase construct.
Compounds, in concentrations from 30 μM down to 1 nM, were incubated for 24 hours on the cells, which were induced for TCF-dependent transcription by the addition of estrogen (10). Luciferase activities were determined using the ONE GLO Luciferase Assay System (Promega) and the ENVISION microplate reader (Perkin Elmer). For analysis, the obtained data were normalized against the untreated vehicle control and fitted for determination of the IC50 values using the Assay Explorer software (Accelrys).
`CC(=O)N(C)CCN(C)c1cncc(Oc2ccc3c(c2)CCC3)n1` [Compound 92, N-(2-{[6-(Indan-5-yloxy)-pyrazin-2-yl]-methyl-amino}-ethyl)-N-methyl-acetamide]: the IC50 was < 200 nM. For `CC(=O)N(C)CCN(C)c1cncc(Oc2ccc(-c3ccc(C)cn3)cc2)n1` [Compound 93, N-Methyl-N-[2-(methyl-{6-[4-(5-methyl-pyridin-2-yl)-phenoxy]-pyrazin-2-yl}-amino)-ethyl]-acetamide] the value was < 200 nM. In turn, `CC(=O)Nc1ccc(Oc2cncc(N(C)CCN(C)C(C)=O)n2)cc1` [Compound 94, N-(2-{[6-(4-Acetylamino-phenoxy)-pyrazin-2-yl]-methyl-amino}-ethyl)-N-methyl-acetamide] gave a concentration for half-maximal inhibition (IC50) of 200 to 1000 nM. For `CC(=O)N(C)CCN(C)c1cncc(Oc2ccc(C(C)C)cc2)n1` [Compound 95, N-(2-{[6-(4-Isopropyl-phenoxy)-pyrazin-2-yl]-methyl-amino}-ethyl)-N-methyl-acetamide] the value was < 200 nM. Compound `CC(=O)N(C)CCN(C)c1cncc(Oc2ccc(Cl)cc2Cl)n1` [Compound 96, N-(2-{[6-(2,4-Dichloro-phenoxy)-pyrazin-2-yl]-methyl-amino}-ethyl)-N-methyl-acetamide] returned an IC50 of 200 to 1000 nM. Turning to `CCc1ccc(Oc2cncc(N(C)CCN(C)C(C)=O)n2)cc1` [Compound 97, N-(2-{[6-(4-Ethyl-phenoxy)-pyrazin-2-yl]-methyl-amino}-ethyl)-N-methyl-acetamide], the concentration for half-maximal inhibition (IC50) was < 200 nM.

Take `CC(=O)N(C)CCN(C)c1cncc(Oc2ccc(-c3ccccc3)cc2)n1` [Compound 98, N-(2-{[6-(Biphenyl-4-yloxy)-pyrazin-2-yl]-methyl-amino}-ethyl)-N-methyl-acetamide]: the concentration for half-maximal inhibition (IC50) is < 200 nM. In the case of `CC(=O)N(C)CCN(C)c1cncc(Oc2ccc(C3CCCCC3)cc2)n1` [Compound 99, N-(2-{[6-(4-Cyclohexyl-phenoxy)-pyrazin-2-yl]-methyl-amino}-ethyl)-N-methyl-acetamide], the IC50 lay within 1000 to 10000 nM. For `CC(=O)N(C)CCN(C)c1cncc(Oc2ccc(S(C)(=O)=O)cc2)n1` [Compound 100, N-(2-{[6-(4-Methane-sulfonyl-phenoxy)-pyrazin-2-yl]-methyl-amino}-ethyl)-N-methyl-acetamide] the value was 200 to 1000 nM; for `CC(=O)N(C)CCN(C)c1cncc(Oc2ccc(S(N)(=O)=O)cc2)n1` [Compound 101, N-Methyl-N-(2-[methyl-[6-(4-sulfamoyl-phenoxy)-pyrazin-2-yl]-amino}-ethyl)-acetamide], 200 to 1000 nM; for `CCN(CCN(CC)c1cncc(Oc2ccc(F)cc2)n1)C(C)=O` [Compound 102, N-Ethyl-N-(2-{ethyl-[6-(4-fluoro-phenoxy)-pyrazin-2-yl]-amino}-ethyl)-acetamide], 200 to 1000 nM.

Compound `CCN(CCN(CC)c1cncc(Oc2ccc(OC)cc2)n1)C(C)=O` [Compound 103, N-Ethyl-N-(2-{ethyl-[6-(4-methoxy-phenoxy)-pyrazin-2-yl]-amino}-ethyl)-acetamide] displayed an IC50 of 200 to 1000 nM. For `CC(=O)N(C)CCN(C)c1cncc(OCc2ccc(F)cc2)n1` [Compound 104, N-(2-{[6-(4-Fluoro-benzyloxy)-pyrazin-2-yl]-methyl-amino}-ethyl)-N-methyl-acetamide] the value was 1000 to 10000 nM; for `CC(=O)N(C)CCN(C)c1cncc(Oc2ccc(F)cc2F)n1` [Compound 105, N-(2-{[6-(2,4-Difluoro-phenoxy)-pyrazin-2-yl]-methyl-amino}-ethyl)-N-methyl-acetamide], 200 to 1000 nM.

`CC(=O)N(C)CCN(C)c1cncc(Oc2ccc3[nH]ccc3c2)n1` [Compound 106, N-(2-{[6-(1H-Indol-5-yloxy)-pyrazin-2-yl]-methyl-amino}-ethyl)-N-methyl-acetamide] had an IC50 of 200 to 1000 nM.

In the case of `CC(=O)N(C)CCN(C)c1cncc(Oc2ccc3c(c2)C(=O)CC3)n1` [Compound 108, N-Methyl-N-(2-{methyl-[6-(3-oxo-indan-5-yloxy)-pyrazin-2-yl]-amino}-ethyl)-acetamide], the IC50 was 1000 to 10000 nM. For `COc1ccc(Oc2cncc(N(C)CCN(C)C(C)=O)n2)c(F)c1` [Compound 109, N-(2-{[6-(2-Fluoro-4-methoxy-phenoxy)-pyrazin-2-yl]-methyl-amino}-ethyl)-N-methyl-acetamide], the IC50 was in the range of 200 to 1000 nM.

The compound `CC(=O)N(C)CCN(C)c1cncc(Oc2ccc(Cl)cc2F)n1` [Compound 110, N-(2-{[6-(4-Chloro-2-fluoro-phenoxy)-pyrazin-2-yl]-methyl-amino}-ethyl)-N-methyl-acetamide] had a concentration for half-maximal inhibition (IC50) of 200 to 1000 nM. The same measure for `CC(=O)N(C)CCN(C)c1cncc(Oc2ccc(Br)c(C)c2)n1` [Compound 111, N-(2-{[6-(4-Bromo-3-methyl-phenoxy)-pyrazin-2-yl]-methyl-amino}-ethyl)-N-methyl-acetamide]: 200 to 1000 nM; for `CC(=O)N(C)CCN(C)c1cncc(Oc2ccc3ccncc3c2)n1` [Compound 112, N-(2-{[6-(Isoquinolin-7-yloxy)-pyrazin-2-yl]-methyl-amino}-ethyl)-N-methyl-acetamide]: < 200 nM. As to `CC(=O)N(C)CCN(C)c1cncc(Oc2c(F)cc(Br)cc2F)n1` [Compound 113, N-(2-{[6-(4-Bromo-2,6-difluoro-phenoxy)-pyrazin-2-yl]-methyl-amino}-ethyl)-N-methyl-acetamide], the IC50 is < 200 nM. Consider `CC(=O)N(C)CCN(C)c1cncc(Oc2cccc(N(C)C)c2)n1` [Compound 114, N-(2-{[6-(3-Dimethyl-amino-phenoxy)-pyrazin-2-yl]-methyl-amino}-ethyl)-N-methyl-acetamide], for which the IC50 is 1000 to 10000 nM. For `CCOC(=O)c1ccc(Oc2cncc(N(C)CCN(C)C(C)=O)n2)cc1` [Compound 115, 4-(6-{[2-(Acetyl-methyl-amino)-ethyl]-methyl-amino}-pyrazin-2-yloxy)-benzoic acid ethyl ester] the value was 200 to 1000 nM; for `CN(CCN1CCCCC1=O)c1cncc(Oc2ccc(F)cc2)n1` [Compound 116, 1-(2-{[6-(4-Fluoro-phenoxy)-pyrazin-2-yl]-methyl-amino}-ethyl)-piperidin-2-one], < 200 nM. For `CC(=O)N(C)CCN(C)c1cncc(Oc2ccc(CC(N)=O)cc2)n1` [Compound 117, 2-[4-(6-{[2-(Acetyl-methyl-amino)-ethyl]-methyl-amino}-pyrazin-2-yloxy)-phenyl]-acetamide], the 50% inhibitory concentration (IC50) was in the range of 200 to 1000 nM. `CC(=O)N(C)CCN(C)c1cncc(Oc2ccc(-n3ccnc3)cc2)n1` [Compound 118]: the IC50 is < 200 nM. Compound `CC(=O)NCCSc1cncc(Oc2ccc(F)cc2)n1` [Compound 119, N-{2-[6-(4-Fluoro-phenoxy)-pyrazin-2-ylsulfanyl]-ethyl}-acetamide] showed a half-maximal inhibitory concentration (IC50) of 1000 to 10000 nM. For `CNCCN(C)c1cncc(Oc2ccc(-c3cc(C(F)(F)F)ccn3)cc2)n1` [Compound 120, N,N′-Dimethyl-N-{6-[4-(4-trifluoro-methyl-pyridin-2-yl)-phenoxy]-pyrazin-2-yl}-ethane-1,2-diamine] the value was 1000 to 10000 nM; for `CC(=O)N(C)CCN(C)c1cncc(Oc2ccc(C(F)(F)F)cc2)n1` [Compound 121, N-Methyl-N-(2-{methyl-[6-(4-trifluoro-methyl-phenoxy)-pyrazin-2-yl]-amino}-ethyl)-acetamide], 200 to 1000 nM.

The values are drawn from patent US9493444B2 (Merck Patent GmbH, priority 2012, dated 2016).
